Like-named read-outs stand apart in the source and are kept apart here. Square brackets hold non-standard residues; d marks the D form. Peptide text beside a SMILES is read from it. * marks the point of attachment. X15 = N[C@@H](CCCCCCC(Cl)Cl)[C@H](O)C(=O)*; X1 = N[C@H](CCCCCCC(Cl)Cl)[C@@H](O)C(=O)*; X14 = CCCCCCC[C@@H](N)[C@@H](O)C(=O)*; X6 = N[C@@H](CCCCCCCCl)[C@H](O)C(=O)*; X7 = N[C@H](CCCCCCCCl)[C@@H](O)C(=O)*; X10 = CCCCCCC[C@@H](N)[C@H](O)C(=O)*; NMeY = CN[C@@H](Cc1ccc(O)cc1)C(=O)O; X3 = CCCCCCC[C@H](NC)[C@H](O)C(=O)*; dNMeY = CN[C@H](Cc1ccc(O)cc1)C(=O)O; hTyr = N[C@@H](CCc1ccc(O)cc1)C(=O)O; X12 = N[C@H](CCCCCCC(Cl)Cl)CC(=O)*; X9 = CCCCCCC[C@H](N)[C@H](O)C(=O)*; NMeL = CN[CH](CC(C)C)C(=O)O; X2 = N[C@H](CCCCCCCCl)CC(=O)*; X11 = CCCCCCCC(NC)C(O)C(=O)*; X5 = NC(CCCCCCCCl)C(O)C(=O)*; NMeV = CN[C@H](C(=O)O)C(C)C; X8 = CCCCCCCC(N)C(O)C(=O)*
Experiments:
[1] = test system: ACE; settings: cited from earlier work
[2] = test system: APM; settings: cited from earlier work; for IC50: Table S1; for Activity: APM (ni): Table S1, 'APM, ACE-ni'
[3] = target: T1, porcine kidney microsomal aminopeptidase M (Sus scrofa, UniProt P15145); assay: Aminopeptidase M inhibitory assay; type: biochemical
T1 construct: purchased Sigma-Aldrich (St. Louis, MO, USA); host or cells: porcine kidney microsomes
T1 sequence (P15145 1-963): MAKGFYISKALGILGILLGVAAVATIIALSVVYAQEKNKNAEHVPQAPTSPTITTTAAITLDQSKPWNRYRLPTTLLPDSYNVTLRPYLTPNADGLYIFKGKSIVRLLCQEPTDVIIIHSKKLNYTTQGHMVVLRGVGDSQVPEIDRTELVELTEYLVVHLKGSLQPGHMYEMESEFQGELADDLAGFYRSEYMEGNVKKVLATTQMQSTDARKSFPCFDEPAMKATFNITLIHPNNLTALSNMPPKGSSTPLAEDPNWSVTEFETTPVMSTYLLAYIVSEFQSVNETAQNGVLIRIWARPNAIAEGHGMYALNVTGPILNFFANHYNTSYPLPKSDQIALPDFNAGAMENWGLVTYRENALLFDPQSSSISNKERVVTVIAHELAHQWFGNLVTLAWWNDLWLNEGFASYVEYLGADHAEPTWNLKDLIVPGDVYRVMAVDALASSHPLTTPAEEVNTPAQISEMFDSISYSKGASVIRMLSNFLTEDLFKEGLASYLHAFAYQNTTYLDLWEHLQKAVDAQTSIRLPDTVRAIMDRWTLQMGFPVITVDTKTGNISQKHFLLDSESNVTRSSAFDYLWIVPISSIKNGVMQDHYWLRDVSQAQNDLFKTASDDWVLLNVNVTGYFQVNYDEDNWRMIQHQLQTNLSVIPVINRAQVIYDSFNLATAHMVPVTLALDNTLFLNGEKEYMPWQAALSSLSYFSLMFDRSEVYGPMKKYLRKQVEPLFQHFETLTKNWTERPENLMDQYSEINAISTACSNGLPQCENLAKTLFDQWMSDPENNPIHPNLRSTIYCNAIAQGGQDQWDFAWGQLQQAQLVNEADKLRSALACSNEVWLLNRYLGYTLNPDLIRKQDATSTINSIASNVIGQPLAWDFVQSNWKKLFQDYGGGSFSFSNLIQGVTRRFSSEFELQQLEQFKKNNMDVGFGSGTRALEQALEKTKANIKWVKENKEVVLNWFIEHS
Method: Aminopeptidase M inhibitory activity was determined according to the procedure described by Ishida et al.. A reaction mixture composed of 20 μL of L-leucine-p-nitroanilide (2 mM in 0.1 M Tris-HCl buffer at pH 7.0), 50 μL of 0.1 M Tris-HCl buffer (pH 7.0) and 20 μL of test solution was added to each well of a 96-well microtiter plate. The plate was incubated at 37 °C for 5 min; thereafter, 10 μL of porcine kidney microsomal aminopeptidase M [EC Number 232-942-5, Sigma-Aldrich (St. Louis, MO, USA), […] in 3.5 M (NH4)2SO4] was added to each well, and the absorbance at 405 nm was measured for 30 min. The microginin samples were dissolved in DMSO at a concentration of 1 mg/mL, and the IC50 values were determined by analysis of a series of dilutions (from 45.5 μM to 0.00069 μM). A sigmoidal curve of the enzyme inhibition versus the concentration of the inhibitor was observed that was fit to a 4-parameter logistic model.

[4] = Table S1, ref 9 (Sano et al., Phytochem. 2005)
[5] = ref 9 (Sano et al., Phytochem. 2005), read-out: Activity: APM
[6] = Table S1, ref 6 (Ishida et al., Tetrahedron 2000)
[7] = ref 6 (Ishida et al., Tetrahedron 2000), read-out: Activity: APM
[8] = ref 6 (Ishida et al., Tetrahedron 2000)
[9] = Table S1, ref 4 (Ishida et al., Tetrahedron 1998)
[10] = ref 4 (Ishida et al., Tetrahedron 1998)
[11] = Table S1, ref 2 (Ishida et al., Tetrahedron 1997)
[12] = ref 2 (Ishida et al., Tetrahedron 1997), read-out: Activity: APM
[13] = ref 4 (Ishida et al., Tetrahedron 1998), read-out: Activity: APM
[14] = Table S1, ref 5 (Kodani et al., FEMS Microbiol. Lett. 1999)
[15] = ref 5 (Kodani et al., FEMS Microbiol. Lett. 1999), read-out: Activity: AMP

## CCCCCCC[C@@H](N)[C@H](O)C(=O)N[C@@H](C)C(=O)N[C@H](C(=O)N(C)[C@@H](Cc1ccc(O)cc1)C(=O)N[C@@H](CCc1ccc(O)cc1)C(=O)O)C(C)C [Cyanostatin A] (X10-AV[NMeY][hTyr]-OH)
[1]; [4]
  IC50: 150 µM
[2]; [5]
  IC50: 55 µM

## CCCCCCCC(N)C(O)C(=O)NC(Cc1ccc(O)cc1)C(=O)N(C)C(CC(C)C)C(=O)N1CCCC1C(=O)NC(Cc1ccc(O)cc1)C(=O)O (stereo not shown) [Cyanostatin B] (X8-Y[NMeL]PY-OH; configuration not given here)
[1]; [4]
  IC50: 170 µM
[2]; [5]
  IC50: 16 µM

## CCCCCCC[C@H](N)[C@H](O)C(=O)N[C@@H](Cc1ccc(O)cc1)C(=O)N(C)[C@H](C(=O)N(C)[C@@H](Cc1ccc(O)cc1)C(=O)N1CCC[C@@H]1C(=O)N[C@@H](Cc1ccc(O)cc1)C(=O)O)C(C)C [Microginin 51-A] (X9-Y[NMeV][NMeY][dP]Y-OH)
[1]; [6]
  Activity: ACE (ni): ni
[2]; [7]
  IC50: 4.9 µM

## CCCCCCC[C@H](NC)[C@H](O)C(=O)N[C@@H](Cc1ccc(O)cc1)C(=O)N(C)[C@H](C(=O)N(C)[C@@H](Cc1ccc(O)cc1)C(=O)N1CCC[C@@H]1C(=O)N[C@@H](Cc1ccc(O)cc1)C(=O)O)C(C)C [Microginin 51-B] (X3-Y[NMeV][NMeY][dP]Y-OH)
[1]; [6]
  Activity: ACE (ni): ni
[2]; [8]
  Activity: APM (ni): ni

## CCC(C)C(NC(=O)C(O)C(N)CCCCCCCCl)C(=O)N(C)C(CC(C)C)C(=O)N1CCCC1C(=O)O (stereo not shown) [Microginin 91-B]
[1]; [6]
  Activity: ACE (ni): ni
[2]; [8]
  Activity: APM (ni): ni

## CCCCCCC[C@@H](N)[C@@H](O)C(=O)N[C@H](C(=O)N(C)[C@@H](CC(C)C)C(=O)N1CCC[C@H]1C(=O)N[C@@H](Cc1ccc(O)cc1)C(=O)O)[C@@H](C)CC [Microginin 91-C] (X14-I[NMeL]PY-OH)
[1]; [6]
  Activity: ACE (ni): ni
[2]; [7]
  IC50: 71.1 µM

## CC[C@H](C)[C@H](NC(=O)[C@H](O)[C@H](N)CCCCCCCCl)C(=O)N(C)[C@@H](CC(C)C)C(=O)N1CCC[C@H]1C(=O)N[C@@H](Cc1ccc(O)cc1)C(=O)O [Microginin 91-D] (X7-I[NMeL]PY-OH)
[1]; [6]
  Activity: ACE (ni): ni
[2]; [7]
  IC50: 43.4 µM

## CC[C@H](C)[C@H](NC(=O)[C@H](O)[C@H](N)CCCCCCC(Cl)Cl)C(=O)N(C)[C@@H](CC(C)C)C(=O)N1CCC[C@H]1C(=O)N[C@@H](Cc1ccc(O)cc1)C(=O)O [Microginin 91-E] (X1-I[NMeL]PY-OH)
[1]; [6]
  Activity: ACE (ni): ni
[2]; [7]
  IC50: 19.5 µM

## CC(C)C[C@H](NC(=O)[C@H](Cc1ccc(O)cc1)NC(=O)C[C@H](N)CCCCCCCCl)C(=O)N(C)[C@@H](Cc1ccc(O)cc1)C(=O)N1CCC[C@H]1C(=O)O [Microginin 99-A] (X2-YL[NMeY]P-OH)
[1]; [9]
  Activity: ACE (ni): ni
[2]; [10]
  Activity: APM (ni): ni

## CC(C)C[C@H](NC(=O)[C@H](Cc1ccc(O)cc1)NC(=O)C[C@H](N)CCCCCCC(Cl)Cl)C(=O)N(C)[C@@H](Cc1ccc(O)cc1)C(=O)N1CCC[C@H]1C(=O)O [Microginin 99-B] (X12-YL[NMeY]P-OH)
[1]; [9]
  Activity: ACE (ni): ni
[2]; [10]
  Activity: APM (ni): ni

## CC(C)[C@H](NC(=O)[C@@H](O)[C@@H](N)CCCCCCCCl)C(=O)N(C)[C@H](C(=O)N(C)[C@@H](Cc1ccc(O)cc1)C(=O)N1CCC[C@H]1C(=O)N[C@@H](Cc1ccc(O)cc1)C(=O)O)C(C)C [Microginin 299-A] (X6-V[NMeV][NMeY]PY-OH)
[1]; [11]
  Activity: ACE (ni): ni
[2]; [12]
  IC50: 5.2 µM

## CC(C)[C@H](NC(=O)[C@@H](O)[C@@H](N)CCCCCCC(Cl)Cl)C(=O)N(C)[C@H](C(=O)N(C)[C@@H](Cc1ccc(O)cc1)C(=O)N1CCC[C@H]1C(=O)N[C@@H](Cc1ccc(O)cc1)C(=O)O)C(C)C [Microginin 299-B] (X15-V[NMeV][NMeY]PY-OH)
[1]; [11]
  Activity: ACE (ni): ni
[2]; [12]
  IC50: 7.1 µM

## CCCCCCC[C@H](N)[C@H](O)C(=O)N[C@H](C(=O)N(C)[C@H](C(=O)N(C)[C@@H](Cc1ccc(O)cc1)C(=O)N1CCC[C@H]1C(=O)N[C@@H](Cc1ccc(O)cc1)C(=O)O)C(C)C)C(C)C [Microginin 299-C] (X9-V[NMeV][NMeY]PY-OH)
[1]; [9]
  Activity: ACE (ni): ni
[2]; [13]
  IC50: 2.3 µM

## CC(C)[C@H](NC(=O)[C@H](O)[C@H](N)CCCCCCC(Cl)Cl)C(=O)N(C)[C@H](C(=O)N(C)[C@H](Cc1ccc(O)cc1)C(=O)N1CCC[C@@H]1C(=O)O)C(C)C [Microginin 299-D] (X1-V[NMeV][dNMeY][dP]-OH)
[1]; [9]
  Activity: ACE (ni): ni
[2]; [13]
  IC50: 8.5 µM

## CCCCCCC[C@H](NC)[C@H](O)C(=O)N[C@H](C(=O)N(C)[C@H](C(=O)N(C)[C@@H](Cc1ccc(O)cc1)C(=O)N[C@@H](Cc1ccc(O)cc1)C(=O)O)C(C)C)C(C)C [Microginin 478] (X3-V[NMeV][NMeY]Y-OH)
[1]; [6]
  IC50: 13.2 µM
[2]; [7]
  IC50: 132 µM

## CCCCCCC[C@H](N)[C@H](O)C(=O)N(C)[C@@H](CCSC)C(=O)N[C@@H](Cc1ccc(O)cc1)C(=O)N[C@@H](Cc1ccc(O)cc1)C(=O)O [Microginin 674]
[1]; Table S1, ref 15 (Product of LKT Laboratories, Inc.)
  Activity: ACE inhibitor

## CCCCCCC[C@H](N)[C@H](O)C(=O)N(C)[C@@H](CC[S+](C)[O-])C(=O)N[C@@H](Cc1ccc(O)cc1)C(=O)N[C@@H](Cc1ccc(O)cc1)C(=O)O (stereo partly shown) [Microginin 690]
[1]; Table S1, ref 16 (Product of Santa Cruz Biotechnology)
  Activity: ACE inhibitor

## CCCCCCCC(N)C(O)C(=O)NC(C(=O)N1CCCC1C(=O)NC(Cc1ccc(O)cc1)C(=O)NC(Cc1ccc(O)cc1)C(=O)O)C(C)O (stereo not shown) [Microginin FR3] (X8-TPYY-OH; configuration not given here)
[3]; Activity: APM, Table S1, source 14 = this manuscript
  IC50: 0.0062 µM
[3]; IC50 in μM ± SD, Table 4, substrate L-leucine-p-nitroanilide, Tris-HCl pH 7.0, 37 °C
  IC50: 6.2 ± 0.03 µM

## CCCCCCCC(NC)C(O)C(=O)NC(C(=O)N1CCCC1C(=O)NC(Cc1ccc(O)cc1)C(=O)NC(Cc1ccc(O)cc1)C(=O)O)C(C)O (stereo not shown) [Microginin FR4] (X11-TPYY-OH; configuration not given here)
[3]; read-out: Activity: APM, Table S1, source 14 = this manuscript
  IC50: 0.0018 µM
[3]; read-out: IC50 in μM ± SD, Table 4, substrate L-leucine-p-nitroanilide, Tris-HCl pH 7.0, 37 °C
  IC50: 1.8 ± 0.04 µM

## C[C@H](NC(=O)C(O)C(N)CCCCCCCCl)C(=O)N1CCC[C@H]1C(=O)N[C@@H](Cc1ccc(O)cc1)C(=O)N[C@@H](Cc1ccc(O)cc1)C(=O)O (stereo partly shown) [Microginin T1] (X5-APYY-OH)
[1]; [14]
  IC50: 6.8 µM
[2]; [15]
  IC50: 2.7 µM

## CCCCCCCC(N)C(O)C(=O)N[C@@H](C)C(=O)N1CCC[C@H]1C(=O)N[C@@H](Cc1ccc(O)cc1)C(=O)N[C@@H](Cc1ccc(O)cc1)C(=O)O (stereo partly shown) [Microginin T2] (X8-APYY-OH)
[1]; [14]
  IC50: 10 µM
[2]; [15]
  IC50: 2.9 µM

## CCCCCCCC(N)C(O)C(=O)N[C@@H](C)C(=O)N[C@H](C(=O)N(C)[C@@H](Cc1ccc(O)cc1)C(=O)N[C@@H](Cc1ccc(O)cc1)C(=O)O)C(C)C (stereo partly shown) [Microginin] (X8-AV[NMeY]Y-OH)
[1]; Table S1, activity named without value, ref 1 (Okino et al., Tetrahedron Lett. 1993)
  Activity: ACE

## Microginin 91-A
[1]; [6]
  Activity: ACE (ni): ni
[2]; [8]
  Activity: APM (ni): ni
